According to publication PMC3472523 (Journal of the American Chemical Society, 2012):
Residues, ends and D or L forms follow the SMILES beside them.

How the values were obtained:
Stability in mouse serum = type: in vitro ADME; conditions: for half-life: mouse
[1] = Far-UV CD measurement of percent helicity; type: physicochemical; conditions: for Percent helicity: 50 μM in ACN/H2O (1:1), calculated from [θ]222
Bcl-2 = conditions: cited from earlier work
Mcl-1 [2] = target: T1, Mcl-1 (Mus musculus, UniProt P97287); conditions: cited from earlier work
Bcl-xL [3] = target: T2, Bcl-xL (Homo sapiens, UniProt Q07817); conditions: cited from earlier work
[4] = test system: Mcl-1-overexpressing U937 cells; conditions: for Activity in cell viability assay: U937 cells
Mcl-1 [5] = target: T1, Mcl-1; experiment: Competitive fluorescence polarization; type: binding; conditions: competitive FP assay
Mcl-1 [6] = target: T1, Mcl-1; experiment: Direct FP binding assay of fluorescein-conjugated peptides; conditions: read-out: Kd toward Mcl-1, N-terminal fluorescein-conjugated peptides
Bcl-xL [7] = target: T2, Bcl-xL; experiment: as above

T1 sequence (P97287 whole entry): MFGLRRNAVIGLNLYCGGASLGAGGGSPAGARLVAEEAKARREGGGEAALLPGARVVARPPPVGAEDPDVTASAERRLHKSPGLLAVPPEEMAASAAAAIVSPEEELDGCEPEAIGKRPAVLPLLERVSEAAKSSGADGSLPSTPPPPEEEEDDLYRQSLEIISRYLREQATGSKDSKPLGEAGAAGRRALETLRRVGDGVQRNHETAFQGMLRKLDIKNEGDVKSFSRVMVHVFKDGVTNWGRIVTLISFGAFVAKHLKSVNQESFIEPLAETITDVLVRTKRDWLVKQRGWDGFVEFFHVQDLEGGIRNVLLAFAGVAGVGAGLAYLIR
T2 sequence (Q07817 whole entry, species assumed): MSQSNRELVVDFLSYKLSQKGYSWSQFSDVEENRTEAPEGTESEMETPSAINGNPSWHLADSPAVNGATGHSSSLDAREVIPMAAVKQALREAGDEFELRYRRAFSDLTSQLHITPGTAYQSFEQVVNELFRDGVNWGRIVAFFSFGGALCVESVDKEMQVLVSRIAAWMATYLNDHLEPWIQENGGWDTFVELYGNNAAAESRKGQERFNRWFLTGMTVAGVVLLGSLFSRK

Compound	Increase in stability in mouse serum relative to linear Noxa peptide (Stability in mouse serum) [fold]	half-life (Stability in mouse serum) [h]	Percent helicity [1] [%]	Increase in inhibitory activity compared to parent Noxa peptide (Mcl-1 [5]) [fold]	Activity in cell viability assay ([4]; 20 μM peptide, 48 hours)	also measured
CN(C)CC[C@H](CSc1ccccc1)Nc1ccc(S(=O)(=O)NC(=O)c2ccc(N3CCN(Cc4ccccc4-c4ccc(Cl)cc4)CC3)cc2)cc1[N+](=O)[O-] [ABT-737]	–	–	–	–	–	Binding affinity to Bcl-2 (Bcl-2): subnanomolar affinity; Binding to Mcl-1 (Mcl-1 [2]): poorly; Binding affinity to Bcl-xL (Bcl-xL [3]): subnanomolar affinity
CC[C@H](C)[C@@H]1NC(=O)[C@H](CCCNC(=N)N)NC(=O)[C@H](CCCNC(=N)N)NC(=O)[C@H](CC(C)C)NC(=O)[C@@H](NC(=O)[C@H](C)NC(=O)[C@H](C)NC(C)=O)CSCc2ccc(cc2)-c2ccc(cc2)CSC[C@@H](C(=O)N[C@H](C(=O)N[C@@H](CC(N)=O)C(=O)N[C@@H](CC(C)C)C(=O)N[C@@H](CCCNC(=N)N)C(=O)N[C@@H](CCC(N)=O)C(=O)N[C@@H](CCCCN)C(=O)N[C@@H](CC(C)C)C(=O)N[C@@H](CC(C)C)C(=O)N[C@@H](CC(N)=O)C(N)=O)C(C)C)NC(=O)[C@H](CC(=O)O)NC(=O)CNC1=O [compound 1]	–	–	–	65	no activity	–
CC[C@H](C)[C@H](NC(=O)[C@H](CCCNC(=N)N)NC(=O)[C@H](CCCNC(=N)N)NC(=O)[C@H](CC(C)C)NC(=O)[C@H](CCC(N)=O)NC(=O)[C@H](C)NC(=O)[C@H](C)NC(C)=O)C(=O)NCC(=O)N[C@@H](CC(=O)O)C(=O)N[C@@H](CCCCN)C(=O)N[C@H](C(=O)N[C@@H](CC(N)=O)C(=O)N[C@@H](CC(C)C)C(=O)N[C@@H](CCCNC(=N)N)C(=O)N[C@@H](CCC(N)=O)C(=O)N[C@@H](CCCCN)C(=O)N[C@@H](CC(C)C)C(=O)N[C@@H](CC(C)C)C(=O)N[C@@H](CC(N)=O)C(N)=O)C(C)C [Noxa, reference compound]	–	0.175 ± 0.0383	–	–	no activity	Kd (Mcl-1 [6]): 0.0067 ± 0.001 µM; Kd (Bcl-xL [7]): > 1 µM; Cell viability ([4]; ATP assay, U937 cells in RPMI1640 with 5% FBS, 20 μM peptide, 48 hours): 97.6±0.9%

The next lines start with results.

Increase in stability in mouse serum relative to linear Noxa peptide (Stability in mouse serum) [fold]	half-life (Stability in mouse serum) [h]	Percent helicity [1] [%]	Increase in inhibitory activity compared to parent Noxa peptide (Mcl-1 [5]) [fold]	Compound	Activity in cell viability assay ([4]; 20 μM peptide, 48 hours)	also measured
180	31.6 ± 2.2	66	–	CC[C@H](C)[C@@H]1NC(=O)[C@H](C)NC(=O)[C@H](CCCNC(=N)N)NC(=O)[C@H](CC(C)C)NC(=O)[C@H](NC(=O)[C@H](C)NC(=O)[C@H](C)NC(C)=O)CSCc2ccc(cc2)-c2ccc(cc2)CSC[C@@H](C(=O)N[C@H](C(=O)N[C@@H](CC(N)=O)C(=O)N[C@@H](CC(C)C)C(=O)N[C@@H](C)C(=O)N[C@@H](CCC(N)=O)C(=O)N[C@@H](C)C(=O)N[C@@H](CC(C)C)C(=O)N[C@@H](CC(C)C)C(=O)N[C@@H](CC(N)=O)C(N)=O)C(C)C)NC(=O)[C@H](CC(=O)O)NC(=O)CNC1=O [compound 5] (HELM PEPTIDE1{[ac].A.A.[dC].L.R.A.I.G.D.C.V.N.L.A.Q.A.L.L.N.[am]}|CHEM1{[c1cc(-c2ccc(C[*:2])cc2)ccc1C[*:1]]}$PEPTIDE1,CHEM1,4:R3-1:R1|PEPTIDE1,CHEM1,11:R3-1:R2$$$V2.0)	–	Increase in helicity, 5 compared to 2 [1]: more than twofold
121	21.2 ± 2.6	52	–	CC[C@H](C)[C@@H]1NC(=O)[C@H](C)NC(=O)[C@H](CCCNC(=N)N)NC(=O)[C@H](CC(C)C)NC(=O)[C@H](NC(=O)[C@H](C)N(C)C(=O)[C@H](C)N(C)C(=O)OC)CSCc2ccc(cc2)-c2ccc(cc2)CSC[C@@H](C(=O)N[C@H](C(=O)N[C@@H](CC(N)=O)C(=O)N[C@@H](CC(C)C)C(=O)N[C@@H](C)C(=O)N[C@@H](CCC(N)=O)C(=O)N[C@@H](C)C(=O)N[C@@H](CC(C)C)C(=O)N[C@@H](CC(C)C)C(=O)N[C@@H](CC(N)=O)C(N)=O)C(C)C)NC(=O)[C@H](CC(=O)O)NC(=O)CNC1=O [compound 8] (HELM PEPTIDE1{[COC(=O)[*:2]].[meA].[meA].[dC].L.R.A.I.G.D.C.V.N.L.A.Q.A.L.L.N.[am]}|CHEM1{[c1cc(-c2ccc(C[*:2])cc2)ccc1C[*:1]]}$PEPTIDE1,CHEM1,4:R3-1:R1|PEPTIDE1,CHEM1,11:R3-1:R2$$$V2.0)	–	EC50 ([4]; 48 h): 13.4 µM
–	–	–	12	CC[C@H](C)[C@@H]1NC(=O)[C@H](CCCNC(=N)N)NC(=O)[C@H](CCCNC(=N)N)NC(=O)[C@H](CC(C)C)NC(=O)[C@H](NC(=O)[C@H](C)NC(=O)[C@H](C)NC(C)=O)CSCc2ccc(cc2)-c2ccc(cc2)CSC[C@@H](C(=O)N[C@H](C(=O)N[C@@H](CC(N)=O)C(=O)N[C@@H](CC(C)C)C(=O)N[C@@H](CCCNC(=N)N)C(=O)N[C@@H](CCC(N)=O)C(=O)N[C@@H](CCCCN)C(=O)N[C@@H](CC(C)C)C(=O)N[C@@H](CC(C)C)C(=O)N[C@@H](CC(N)=O)C(N)=O)C(C)C)NC(=O)[C@H](CC(=O)O)NC(=O)CNC1=O [compound 2]	no activity	–
